# Measured values from patent US5455249A, “Phosphorylcarbamates of rapamycin and oxime derivatives thereof” (priority 1994, dated 1995).
# Where “and” joins values, the source holds several entries; their conditions need not be identical. Equal entries are not always repeated.
# How the values were obtained:
# [1] = test system: lymphocyte (thymocyte / T-cell) proliferation; assay: Comitogen-induced thymocyte proliferation procedure (LAF); format: cell-based, normal BALB/c mice; settings: for inhibition at 0.1 µM / IC50: Mus musculus; for inhibition at 0.1 µM: T-cell, read-out: % Inhib. (percent inhibition of T-cell proliferation at 0.1 μM); for IC50: Thymocyte, thymus cells of BALB/c mice cultured 72 hours with PHA and IL-1, tritiated thymidine pulse during last six hours; for LAF (ratio) compared with rapamycin: >1 means test compound inhibits thymocyte proliferation more than rapamycin
# Experimental: (§1) Immunosuppressive activity for representative compounds of this invention was evaluated in an in vitro standard pharmacological test procedure to measure lymphocyte proliferation (LAF) and in an in vivo standard pharmacological test procedure which evaluated the survival time of a pinch skin graft.
# The comitogen-induced thymocyte proliferation procedure (LAF) was used as an in vitro measure of the immunosuppressive effects of representative compounds. Briefly, cells from the thymus of normal BALB/c mice are cultured for 72 hours with PHA and IL-1 and pulsed with tritiated thymidine during the last six hours. Cells are cultured with and without various concentrations of rapamycin, cyclosporin A, or test compound. Cells are harvested and incorporated radioactivity is determined. Inhibition of lymphoproliferation is assessed as percent change in counts per minute from non-drug treated controls. For each compound evaluated, rapamycin was also evaluated for the purpose of comparison. An IC50 was obtained for each test compound as well as for rapamycin. […] The results obtained are provided as an IC50 and as the percent inhibition of T-cell proliferation at 0.1 μM. The results obtained for the representative compounds of this invention were also expressed as a ratio compared with rapamycin. A positive ratio indicates immunosuppressive activity. […] Calculation of the ratio is shown below. [formula]
# pinch skin graft = assay: Pinch skin graft survival time; format: in vivo, male BALB/c donors, male C3H(H-2K) recipients; settings: 4 mg/kg, intraperitoneally or orally; untreated controls rejected within 6-7 days
# Experimental: as §1
# Representative compounds of this invention were also evaluated in an in vivo test procedure designed to determine the survival time of pinch skin graft from male BALB/c donors transplanted to male C3 H(H-2K) recipients. The method is adapted from Billingham R. E. and Medawar P. B., J. Exp. Biol. 28:385-402, (1951 ). Briefly, a pinch skin graft from the donor was grafted on the dorsum of the recipient as a allograft, and an isograft was used as control in the same region. The recipients were treated with either varying concentrations of test compounds intraperitoneally or orally. Rapamycin was used as a test control. Untreated recipients serve as rejection control. The graft was monitored daily and observations were recorded until the graft became dry and formed a blackened scab. This was considered as the rejection day. The mean graft survival time (number of days±S.D.) of the drug treatment group was compared with the control group. […] Results are expressed as the mean survival time in days. Untreated (control) pinch skin grafts are usually rejected within 6-7 days. The results shown in Table 1 are based on a dose of 4 mg/kg of test compound. A survival time of 12.0 ±1.7 days was obtained for rapamycin at 4 mg/kg.
# [2] = alone or in combination with picibanil; cited from earlier work
# [3] = test system: formation of IgE-like antibodies; settings: in vivo; cited from earlier work
# Candida albicans = settings: in vitro and in vivo; cited from earlier work
# [4] = test system: experimental allergic encephalomyelitis model, a model for multiple sclerosis; settings: in vivo; cited from earlier work
# [5] = test system: adjuvant arthritis model, a model for rheumatoid arthritis; settings: in vivo; cited from earlier work
SMILES,inhibition at 0.1 µM [1] [%],IC50 [1] [nM],LAF (ratio) compared with rapamycin [1],Skin Graft mean survival time (days ± SD) (pinch skin graft),antitumor activity [2],inhibition of the formation of IgE-like antibodies [3],antifungal activity (Candida albicans),effect in the experimental allergic encephalomyelitis model [4],effect in the adjuvant arthritis model [5]
"CCOP(=O)(NC(=O)O[C@@H]1/C(C)=C/[C@@H](C)C(=O)C[C@@H]([C@H](C)C[C@@H]2CC[C@@H](OC(=O)NP(=O)(OCC)OCC)[C@H](OC)C2)OC(=O)[C@@H]2CCCCN2C(=O)C(=O)[C@]2(O)O[C@@H](CC[C@H]2C)C[C@H](OC)/C(C)=C/C=C/C=C/[C@@H](C)C[C@@H](C)C(=O)[C@@H]1OC)OCC [Example 1, Rapamycin 31,42-diester with (diethoxyphosphoryl)carbamic acid]",72,90.9,0.04,7.2 ± 0.4 days,,,,,
"CCOP(=O)(NC(=O)O[C@@H]1CC[C@@H](C[C@@H](C)[C@@H]2CC(=O)[C@H](C)/C=C(\C)[C@@H](O)[C@@H](OC)C(=O)[C@H](C)C[C@H](C)/C=C/C=C/C=C(\C)[C@@H](OC)C[C@@H]3CC[C@@H](C)[C@@](O)(O3)C(=O)C(=O)N3CCCC[C@H]3C(=O)O2)C[C@H]1OC)OCC [Example 2, Rapamycin 42-ester with (diethoxyphosphoryl)carbamic acid]",95,10,0.44,10.2 ± 0.4 days and 10.0 ± 0.6 days,,,,,
"CCOP(=O)(NC(=O)O[C@@H]1CC[C@@H](C[C@@H](C)[C@@H]2C/C(=N\OC)[C@H](C)/C=C(\C)[C@@H](O)[C@@H](OC)C(=O)[C@H](C)C[C@H](C)/C=C/C=C/C=C(\C)[C@@H](OC)C[C@@H]3CC[C@@H](C)[C@@](O)(O3)C(=O)C(=O)N3CCCC[C@H]3C(=O)O2)C[C@H]1OC)OCC [Example 3, Rapamycin 42-ester with (diethoxyphosphoryl)carbamic acid (E)-27-O-(methyl)oxime]",51,99,0.05,,,,,,
"CCOP(=O)(NC(=O)O[C@@H]1CC[C@@H](C[C@@H](C)[C@@H]2C/C(=N/OC)[C@H](C)/C=C(\C)[C@@H](O)[C@@H](OC)C(=O)[C@H](C)C[C@H](C)/C=C/C=C/C=C(\C)[C@@H](OC)C[C@@H]3CC[C@@H](C)[C@@](O)(O3)C(=O)C(=O)N3CCCC[C@H]3C(=O)O2)C[C@H]1OC)OCC [Example 4, Rapamycin 42-ester with (diethoxyphosphoryl)carbamic acid (Z)-27-O-(methyl)oxime]",82,41.9,0.01,,,,,,
CO[C@H]1C[C@@H]2CC[C@@H](C)[C@@](O)(O2)C(=O)C(=O)N2CCCC[C@H]2C(=O)O[C@H]([C@H](C)C[C@@H]2CC[C@@H](O)[C@H](OC)C2)CC(=O)[C@H](C)/C=C(\C)[C@@H](O)[C@@H](OC)C(=O)[C@H](C)C[C@H](C)/C=C/C=C/C=C/1C [rapamycin],,0.4 to 5.1,,12.0 ± 1.7 days,antitumor activity,effectively inhibited the formation of IgE-like antibodies,"antifungal activity, particularly against Candida albicans, both in vitro and in vivo",effective,effective
